Reference: BindingDB's records for doi:10.1021/jm00039a025 (Wellcome Research Laboratories, 1994)

Test: Ability to inhibit glycinamide ribonucleotide transformylase (GAR-Tfase) in vitro, using hog liver with (6R)-10-formyl-FH4 as cofactor

Structure (SMILES)	IC50 [nM]
Nc1nc(N)c(CCCNc2cnc(C(=O)N[C@H](CCC(=O)O)C(=O)O)s2)c(=O)[nH]1 [(S)-2-({5-[3-(2,4-Diamino-6-oxo-1,6-dihydro-pyrimidin-5-yl)-propylamino]-thiazole-2-carbonyl}-amino)-pentanedioic acid]	140
Nc1nc(N)c(CCCNc2ccc(C(=O)N[C@H](CCC(=O)O)C(=O)O)s2)c(=O)[nH]1 [(S)-2-({5-[3-(2,4-Diamino-6-oxo-1,6-dihydro-pyrimidin-5-yl)-propylamino]-thiophene-2-carbonyl}-amino)-pentanedioic acid]	2060
